What was measured:
AR / CBP ternary complex = assay: Ternary complex formation assay (sandwich ELISA, AR capture / CBP detection) in VCaP cell lysates; format: cell-based; settings: 1.5 hours treatment, sandwich ELISA (AR capture, CBP or p300 detection)
Summary of the method: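 Anti-AR (AR 441)-coated plates capture AR from lysates of VCaP cells grown ≥3 days at 50K/well in 5% charcoal-stripped FBS, dosed with bifunctional for 1.5 h and lysed 30 min at 4 °C. Co-captured CBP/p300 is probed with rabbit mAb and HRP anti-rabbit, then QuantaRed fluorescence (570/585) is read at 0, 5 and 15 min.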

VCaP cells = assay: VCaP growth inhibition assay; format: cell-based; settings: 30 pM R1881, 9 days, CTG
Experimental: VCaP cells (ATCC Cat #CRL-2876) are plated at 1×10^4 cells per well of a white plastic 96-well cluster plate (Thermo Scientific Nunc Cat #165306) in 100 uL phenol red-free DMEM (Gibco Cat #21063-029) media with 5% CSS (Omega Scientific Cat #FB-04). Cluster plates are returned to the incubator (37*C/5% CO2) for 72 hours prior to treatment. Just prior to treatment, 100 μL of phenol red-free DMEM/5% CSS and […] R1881 (Sigma Cat #R0908-10 mg) was added to each well of the cluster plates (Final R1881 concentration=30 pM). Compounds (200×) were added to each well in a volume of 1 uL, with serial dilutions (1:5) from 20 uM to 2 pM (final concentrations in well are 100 nM to 10 fM). Cluster plates are returned to the incubator for 9 days.
After the 9-day treatment period, media was removed from the cluster plates by inversion and 100 uL room temperature CTG reagent (Promega Cat #G7573) is added to each well. The cluster plates are placed on a shaker and incubated at room temperature for 20 minutes. Following this shaking/incubation, cluster plates are read on a luminometer (BMG ClarioStar). IC50 values are obtained by graphing the RLU data vs. compound concentration with nonlinear regression 4-parameter logistic curves (GraphPad Prism).

EC50 (AR / CBP ternary complex) | IC50 (VCaP cells) | Compound
< 1 nM | ≤ 0.1 nM | COc1cc(OC2C(C)(C)C(NC(=O)c3ccc(N4CC5(CC(N6CCC(n7nc(N8CCCc9cc(-c%10cnn(C)c%10)c(C(F)F)cc98)c8c7CCN(C(C)=O)C8)CC6)C5)C4)cc3)C2(C)C)ccc1C#N (stereo not shown) [Compound 349, 4-[6-[4-[5-acetyl-3-[7-(difluoromethyl)-6-(1-methylpyrazol-4-yl)-3,4-dihydro-2H-quinolin-1-yl]-6,7-dihydro-4H-pyrazolo[4,3-c]pyridin-1-yl]-1-piperidyl]-2-azaspiro[3.3]heptan-2-yl]-N-[3-(4-cyano-3-methoxy-phenoxy)-2,2,4,4-tetramethyl-cyclobutyl]benzamide]
1 to 10 nM | 1 to 100 nM | COc1cc(OC2C(C)(C)C(NC(=O)c3ccc(N4CC5(CCC(C6CCC(n7nc(N8CCCc9cc(-c%10cnn(C)c%10)c(C(F)F)cc98)c8c7CCN(C(C)=O)C8)CC6)CC5)C4)cc3)C2(C)C)ccc1C#N (stereo not shown) [Compound 378, 4-[7-[4-[5-acetyl-3-[7-(difluoromethyl)-6-(1-methylpyrazol-4-yl)-3,4-dihydro-2H-quinolin-1-yl]-6,7-dihydro-4H-pyrazolo[4,3-c]pyridin-1-yl]cyclohexyl]-2-azaspiro[3.5]nonan-2-yl]-N-[3-(4-cyano-3-methoxy-phenoxy)-2,2,4,4-tetramethyl-cyclobutyl]benzamide]
> 100 nM | ≤ 0.1 nM | CC(=O)N1CCc2c(c(N3CCCc4cc(-c5cnn(C)c5)c(C(F)F)cc43)nn2C2CCN(CC3CCN(c4ncc(C(=O)NC5C(C)(C)C(Oc6ccc(C#N)c(Cl)c6)C5(C)C)nn4)CC3)CC2)C1 (stereo not shown) [Compound 152]
1 to 10 nM | > 100 nM | Cn1c(=O)n(C)c2cc(N3CCCc4cc(-c5ccc(CCC6CCN(c7ncc(C(=O)NC8C(C)(C)C(Oc9ccc(C#N)c(Cl)c9)C8(C)C)cn7)CC6)nc5)ncc43)ccc21 (stereo not shown) [Compound 234, N-[3-(3-chloro-4-cyano-phenoxy)-2,2,4,4-tetramethyl-cyclobutyl]-2-[4-[2-[5-[1-(1,3-dimethyl-2-oxo-benzimidazol-5-yl)-3,4-dihydro-2H-1,7-naphthyridin-6-yl]-2-pyridyl]ethyl]-1-piperidyl]pyrimidine-5-carboxamide]
< 1 nM | 0.1 to 1 nM | CC(=O)N1CCc2c(c(N3CCCc4cc(C#N)c(C(F)F)cc43)nn2C2CCN(CC3CCN(c4ncc(C(=O)NC5C(C)(C)C(Oc6ccc(C#N)c(Cl)c6)C5(C)C)cn4)CC3(C)C)CC2)C1 (stereo not shown) [Compound 450, 2-[4-[[4-[5-acetyl-3-[6-cyano-7-(difluoromethyl)-3,4-dihydro-2H-quinolin-1-yl]-6,7-dihydro-4H-pyrazolo[4,3-c]pyridin-1-yl]-1-piperidyl]methyl]-3,3-dimethyl-1-piperidyl]-N-[3-(3-chloro-4-cyano-phenoxy)-2,2,4,4-tetramethyl-cyclobutyl]pyrimidine-5-carboxamide]
< 1 nM | ≤ 0.1 nM | COc1cc(OC2C(C)(C)C(NC(=O)c3ccc(N4CCC(N5CCC(n6nc(N7CCCc8cc(-c9cnn(C)c9)c(C(F)F)cc87)c7c6CCN(C(C)=O)C7)CC5)C(F)(F)C4)cc3)C2(C)C)ccc1C#N (stereo not shown) [Compound 302, 4-[4-[4-[5-acetyl-3-[7-(difluoromethyl)-6-(1-methylpyrazol-4-yl)-3,4-dihydro-2H-quinolin-1-yl]-6,7-dihydro-4H-pyrazolo[4,3-c]pyridin-1-yl]-1-piperidyl]-3,3-difluoro-1-piperidyl]-N-[3-(4-cyano-3-methoxy-phenoxy)-2,2,4,4-tetramethyl-cyclobutyl]benzamide]
< 1 nM | ≤ 0.1 nM | CC(=O)N1CCc2c(c(N3CCCc4cc(-c5cnn(C)c5)c(C(F)F)cc43)nn2C2CCC(CN3CCN(c4ncc(C(=O)NC5C(C)(C)C(Oc6ccc(C#N)c(Cl)c6)C5(C)C)cn4)CC3)CC2)C1 (stereo not shown) [Compound 318, 2-[4-[[4-[5-acetyl-3-[7-(difluoromethyl)-6-(1-methylpyrazol-4-yl)-3,4-dihydro-2H-quinolin-1-yl]-6,7-dihydro-4H-pyrazolo[4,3-c]pyridin-1-yl]cyclohexyl]methyl]piperazin-1-yl]-N-[3-(3-chloro-4-cyano-phenoxy)-2,2,4,4-tetramethyl-cyclobutyl]pyrimidine-5-carboxamide]
< 1 nM | > 100 nM | CC(=O)N1CCc2c(c(Nc3ccc(-c4cnn(C)c4)cc3F)nn2C2CCN(C(=O)COC3CCN(c4ncc(C(=O)NC5C(C)(C)C(Oc6ccc(C#N)c(Cl)c6)C5(C)C)cn4)CC3)CC2)C1 (stereo not shown) [Compound 177, 2-[4-[2-[4-[5-acetyl-3-[2-fluoro-4-(1-methylpyrazol-4-yl)anilino]-6,7-dihydro-4H-pyrazolo[4,3-c]pyridin-1-yl]-1-piperidyl]-2-oxo-ethoxy]-1-piperidyl]-N-[3-(3-chloro-4-cyano-phenoxy)-2,2,4,4-tetramethyl-cyclobutyl]pyrimidine-5-carboxamide]
> 100 nM | > 100 nM | CC(=O)N1CCc2c(c(N3CCCc4cc(-c5cnn(C)c5)c(C(F)F)cc43)nn2C2CCC3(CCCN(c4ncc(C(=O)NC5C(C)(C)C(Oc6ccc(C#N)c(Cl)c6)C5(C)C)cn4)C3)CC2)C1 (stereo not shown) [Compound 412, 2-[9-[5-acetyl-3-[7-(difluoromethyl)-6-(1-methylpyrazol-4-yl)-3,4-dihydro-2H-quinolin-1-yl]-6,7-dihydro-4H-pyrazolo[4,3-c]pyridin-1-yl]-2-azaspiro[5.5]undecan-2-yl]-N-[3-(3-chloro-4-cyano-phenoxy)-2,2,4,4-tetramethyl-cyclobutyl]pyrimidine-5-carboxamide]
10 to 100 nM | > 100 nM | Cn1c(=O)n(C)c2cc(-c3cccc4cc(-c5ccc(CCC6CCN(c7ncc(C(=O)NC8C(C)(C)C(Oc9ccc(C#N)c(Cl)c9)C8(C)C)cn7)CC6)nc5)ncc34)ccc21 (stereo not shown) [Compound 232, N-[3-(3-chloro-4-cyano-phenoxy)-2,2,4,4-tetramethyl-cyclobutyl]-2-[4-[2-[5-[8-(1,3-dimethyl-2-oxo-benzimidazol-5-yl)-3-isoquinolyl]-2-pyridyl]ethyl]-1-piperidyl]pyrimidine-5-carboxamide]
< 1 nM | 0.1 to 1 nM | COc1cc(OC2C(C)(C)C(NC(=O)c3ccc(N4CC(N5CCC6(CCC(n7nc(N8CCCc9cc(-c%10cnn(C)c%10)c(C(F)F)cc98)c8c7CCN(C(C)=O)C8)CC6)C5)C4)cc3)C2(C)C)ccc1C#N (stereo not shown) [Compound 401, 4-[3-[8-[5-acetyl-3-[7-(difluoromethyl)-6-(1-methylpyrazol-4-yl)-3,4-dihydro-2H-quinolin-1-yl]-6,7-dihydro-4H-pyrazolo[4,3-c]pyridin-1-yl]-2-azaspiro [4.5]decan-2-yl]azetidin-1-yl]-N-[3-(4-cyano-3-methoxy-phenoxy)-2,2,4,4-tetramethyl-cyclobutyl]benzamide]
< 1 nM | 0.1 to 1 nM | COc1cc(OC2C(C)(C)C(NC(=O)c3ccc(N4CCN(CCc5ccc(-c6cc7c(cn6)N(c6nn(C8CCOCC8)c8c6CN(C(C)=O)CC8)CCC7)cn5)CC4)cc3)C2(C)C)ccc1C#N (stereo not shown) [Compound 251, 4-[4-[2-[5-[1-(5-acetyl-1-tetrahydropyran-4-yl-6,7-dihydro-4H-pyrazolo[4,3-c]pyridin-3-yl)-3,4-dihydro-2H-1,7-naphthyridin-6-yl]-2-pyridyl]ethyl]piperazin-1-yl]-N-[3-(4-cyano-3-methoxy-phenoxy)-2,2,4,4-tetramethyl-cyclobutyl]benzamide]
< 1 nM | ≤ 0.1 nM | COc1cc(OC2C(C)(C)C(NC(=O)c3ccc(N4CCN(C5CCN(c6ccc(-c7cc8c(cn7)N(c7nn(C9CCOCC9)c9c7CN(C(C)=O)CC9)CCC8)cn6)CC5)CC4)cc3)C2(C)C)ccc1C#N (stereo not drawn) [Compound 323, 4-[4-[1-[5-[l-(5-acetyl-1-tetrahydropyran-4-yl-6,7-dihydro-4H-pyrazolo[4,3-c]pyridin-3-yl)-3,4-dihydro-2H-1,7-naphthyridin-6-yl]-2-pyridyl]-4-piperidyl]piperazin-1-yl]-N-[3-(4-cyano-3-methoxy-phenoxy)-2,2,4,4-tetramethyl-cyclobutyl]benzamide]
< 1 nM | 0.1 to 1 nM | COc1cc(OC2C(C)(C)C(NC(=O)c3ccc(OC4CCC5(CC4)CC(N4CCC(n6nc(N7CCCc8cc(-c9cnn(C)c9)c(C(F)F)cc87)c7c6CCN(C(C)=O)C7)CC4)C5)cc3)C2(C)C)ccc1C#N (stereo not shown) [Compound 396, 4-[2-[4-[5-acetyl-3-[7-(difluoromethyl)-6-(1-methylpyrazol-4-yl)-3,4-dihydro-2H-quinolin-1-yl]-6,7-dihydro-4H-pyrazolo[4,3-c]pyridin-1-yl]-1-piperidyl]spiro[3.5]nonan-7-yl]oxy-N-[3-(4-cyano-3-methoxy-phenoxy)-2,2,4,4-tetramethyl-cyclobutyl]benzamide]
